Assay results as given in patent US5559101A, “L-ribofuranosyl nucleosides” (priority 1994, dated 1996).
In brackets after ≈: the same amount, converted by molar mass.

Key:
[1] = In vitro survival of bone marrow control cells (radiometric BACTEC); format: cell-based; conditions: bone marrow cells
Source text: (§1) CELL LINES: Eight different established human cell lines CALU (lung), COLO320 (colon), H578St (breast), HT-29 (colon), MCF-7 (breast), OM-1 (colon), SKLU (lung) and SKMES(lung), and two control cell lines (bone marrow and/or fibroblast cells) were utilized. All cell lines were obtained from the Tumor Cloning Laboratory, Institute for Drug Development, Cancer Therapy and Research Center, San Antonio, Tex. All cell lines grew as monolayers in the appropriate culture medium supplemented with heat-inactivated calf serum. All reagents were obtained from Grand Island Biological Co., Grand Island, N.Y.
(§2) The iv formulations of the compounds of the present invention were prepared with sterile buffered saline and stored at -70° C. until required for testing.
(§3) Following trypsinization, tumor cells were suspended in tissue culture medium and exposed to the antitumor agents continuously at three different concentrations: 10, 1 and 0.1 μg/ml.
(§4) RADIOMETRIC MEASUREMENT OF GROWTH INHIBITION: Growth inhibition was assessed with the BACTEC System 460 (Johnston Laboratories, Towson, Md.) after addition of the antitumor agent to the cell in the respective growth medium containing ^14 C-glucose at a final concentration of 2 μCi/ml.
(§5) Two mls of the tumor cell suspension containing radioactive glucose were seeded into sterile, disposable 15 ml vials by injection through self-sealing rubber-aluminum caps. […] The seeded vials were then incubated at 37° C. Measurement of the release of ^14 CO2 resulting from the metabolism of ^14 C-glucose were performed on days 6, 9, 12 and 15 in the BACTEC instrument. This instrument flushes the ^14 CO2 containing air out of the vials into an ionization chamber that converts dpm to growth index values. […] Each data point represents triplicate values.
(§6) All compounds were dosed on an equimilimolar basis.

MCF-7 (breast) = assay: Radiometric growth inhibition of tumor cells, MCF-7; format: cell-based, human; design: % SURVIVAL TUMOR: concentration or dose not given beside the values
Source text: as §1, §2, §3, §4, §5, §6

SKLU (lung) = assay: Radiometric growth inhibition of tumor cells, SKLU; format: cell-based, human
Source text: as §1, §2, §3, §4, §5, §6

SKMES (lung) = assay: Radiometric growth inhibition of tumor cells, SKMES; format: cell-based, human
Source text: as §1, with “N.Y. […]” for “N.Y.”
RADIOMETRIC MEASUREMENT OF GROWTH INHIBITION: Growth inhibition was assessed with the BACTEC System 460 (Johnston Laboratories, Towson, Md.) after addition of the antitumor agent to the cell in the respective growth medium containing ^14 C-glucose at a final concentration of 2 μCi/ml. […]
Two mls of the tumor cell suspension containing radioactive glucose were seeded into sterile, disposable 15 ml vials by injection through self-sealing rubber-aluminum caps. […] Chemotherapy sensitivity was calculated by comparing the growth index values of drug-treated vials to that observed in control vials. […]

CALU (lung) = assay: Radiometric growth inhibition of tumor cells, CALU; format: cell-based, human; design: % SURVIVAL TUMOR: concentration or dose not given beside the values
Source text: as §1, §2, §3, §4, §5, §6

COLO320 (colon) = assay: Radiometric growth inhibition of tumor cells, COLO320; format: cell-based, human
Source text: as §1, §2, §3, §4, §5, §6

OM-1 (colon) = assay: Radiometric growth inhibition of tumor cells, OM-1; format: cell-based, human
Source text: as §1, §2, §3, §4, §5, §6

HT29 (colon) = assay: Radiometric growth inhibition of tumor cells, HT29; format: cell-based, human; design: % SURVIVAL TUMOR: concentration or dose not given beside the values
Source text: as §1, §2, §3, §4, §5, §6

HS578T (breast) = assay: Radiometric growth inhibition of tumor cells, HS578T; format: cell-based, human
Source text: as §1, §2, §3, §4, §5, §6

SMILES: O=c1[nH]cc(F)c(=O)[nH]1 [Example 5-FU, 5-fluorouracil, reference compound]
- viability [1]: 1.9%
- IC50 (MCF-7 (breast); Homo sapiens, MCF7): < 0.6 µg/mL
- % SURVIVAL TUMOR (MCF-7 (breast); MCF-7, continuous exposure): 0.8%
- IC50 (SKLU (lung); Homo sapiens): 1.05 µg/mL (≈ 8.07 µM)
- % SURVIVAL TUMOR (SKLU (lung); human, sklu lung tumor cells): 5.0%
- IC50 (SKMES (lung); Homo sapiens, concentration required to kill 50%): < 0.6 µg/mL
- % SURVIVAL TUMOR (SKMES (lung); continuous exposure): 11.2%
- % SURVIVAL TUMOR (CALU (lung); CALU, continuous exposure): 2.2%
- IC50 (CALU (lung); Homo sapiens): < 0.6 µg/mL
- IC50 (COLO320 (colon); Homo sapiens, COLO 320): < 0.6 µg/mL
- % SURVIVAL TUMOR (COLO320 (colon); human, colo320 colon tumor cells): 1.0%
- IC50 (OM-1 (colon); Homo sapiens): 1.47 µg/mL (≈ 11.3 µM)
- % SURVIVAL TUMOR (OM-1 (colon); human, om-1 colon tumor cells): 1.7%
- % SURVIVAL TUMOR (HT29 (colon); HT29, continuous exposure): 1.2%
- IC50 (HT29 (colon); Homo sapiens, HT-29): 0.613 µg/mL (≈ 4.71 µM)
- % SURVIVAL TUMOR (HS578T (breast); HS578T, continuous exposure): 43.5%
- IC50 (HS578T (breast); Homo sapiens, Hs-578T): < 0.6 µg/mL
